These results are taken from patent US20230339851A1, “CXCR6 SULFONAMIDE COMPOUNDS” (CHEMOCENTRYX, INC., priority 2022, published 2023).

For the assay, the target named is T1, human CXCR6 (Homo sapiens, UniProt O00574).
T1 construct: expressed in transfected cells
T1 sequence (O00574 whole entry): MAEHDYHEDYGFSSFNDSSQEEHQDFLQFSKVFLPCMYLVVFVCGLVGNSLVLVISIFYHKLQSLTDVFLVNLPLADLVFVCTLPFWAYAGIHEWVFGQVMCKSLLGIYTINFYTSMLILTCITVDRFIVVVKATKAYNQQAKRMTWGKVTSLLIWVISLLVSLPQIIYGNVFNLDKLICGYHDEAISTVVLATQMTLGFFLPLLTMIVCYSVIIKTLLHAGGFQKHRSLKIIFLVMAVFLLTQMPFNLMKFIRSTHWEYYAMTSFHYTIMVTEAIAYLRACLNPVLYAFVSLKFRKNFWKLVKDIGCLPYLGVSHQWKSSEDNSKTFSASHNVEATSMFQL
Kind of assay: Radioligand Binding Assay (125I-CXCL16 displacement). Conditions: L1.2 cells stably transfected with human CXCR6 cDNA, 0.1 nM 125I-CXCL16, 4° C., three-hour incubation; read-out: Potency (IC50). How it is done: L1.2 cells stably transfected with human CXCR6 cDNA ([…]) were incubated at 4° C. in HBSS containing 0.1 % BSA and 0.1 nM of ^125I-CXCL16 plus various concentrations of Compound. Following a three-hour incubation period, cells were aspirated onto polyethyleneimine-treated GF/B glass fiber filters (PerkinElmer, Waltham, MA) with a cell harvester (Tomtec, Hamden, CT) and washed twice with washing buffer (25 mM Hepes, 500 mM NaCl, 1 mM CaCI2, 5 mM MgCI2, pH 7.1). Fifty µl of MicroScint-20 (PerkinElmer, Waltham, MA) was added to each well of the filters, and radioactive emissions (cpm) were measured on a Packard TopCount Scintillation counter (PerkinElmer, Waltham, MA). IC50 values were calculated with GraphPad Prism using 3 parameter nonlinear regression. […]
Usually IC50 stands for the midpoint of a concentration-inhibition curve. With `CCOc1cc(NC(=O)[C@@H](CO)C(C)C)ccc1S(=O)(=O)Nc1ccc(CO)c(C(F)(F)F)c1` [Example 1.006], the IC50 was 2 to 20 µM.

Consider `COc1cc(NC(=O)C2CCCCC2)ccc1S(=O)(=O)Nc1cccc(C(F)(F)F)c1` [Example 1.008], for which the IC50 was 2 to 20 µM.

For `COc1cc(NC(=O)[C@@H](CO)C(C)C)ccc1S(=O)(=O)Nc1cccc(OC(F)(F)F)c1` [Example 1.009], the IC50 was at most 0.2 µM.

For `COc1cc(NC(=O)c2ccnn2C)ccc1S(=O)(=O)Nc1cc(Cl)cc(C(F)(F)F)c1` [Example 1.011], the IC50 lay within 0.75 to 2 µM.

For `Cc1cc(NC(=O)[C@@H]2CCCN2C(=O)OC(C)(C)C)ccc1S(=O)(=O)Nc1cccc(C(F)(F)F)c1` [Example 1.012], the IC50 fell in the range of 2 to 20 µM.

On to `CCOc1cc(NC(=O)C(CC2CC2)C(=O)O)ccc1S(=O)(=O)Nc1cccc(OC(F)(F)F)c1` (stereo not drawn) [Example 1.013], for which the IC50 is at most 0.2 µM.

Regarding `CCOc1cc(NC(=O)C(CO)CC2CC2)ccc1S(=O)(=O)Nc1cccc(OC(F)(F)F)c1` (stereo not drawn) [Example 1.014], the IC50 is at most 0.2 µM.

For the molecule `COc1cc(NC(=O)c2ccnn2C)ccc1S(=O)(=O)Nc1ccc(C#N)c(OC(F)(F)F)c1` [Example 1.015], the IC50 was 0.75 to 2 µM.

As to `COc1cc(NC(=O)c2ccnn2C)ccc1S(=O)(=O)Nc1ccccc1OC(F)(F)F` [Example 1.016], the IC50 fell in the range of 2 to 20 µM.

On to `CCOc1cc(NC(=O)[C@@H](CO)C(C)C)ccc1S(=O)(=O)Nc1cccc(C(C)(C)C)c1` [Example 1.017], for which the half-maximal inhibitory concentration (IC50) is at most 0.2 µM.

As for `CCOc1cc(NC(=O)C(CO)C(C)C)ccc1S(=O)(=O)Nc1ccc(Cl)c(OC)c1` (stereo not drawn) [Example 1.018], the concentration for half-maximal inhibition (IC50) was at most 0.2 µM.

`Cc1cc(NC(=O)c2ccoc2C)ccc1S(=O)(=O)Nc1cccc(C(F)(F)F)c1` [Example 1.019]: the half-inhibitory concentration (IC50) lay in the range of 0.2 to 0.75 µM.

On to `CCOc1cc(NC(=O)[C@@H](NC(=O)OC(C)(C)C)C(C)O)ccc1S(=O)(=O)Nc1cccc(OC(F)(F)F)c1` (stereo partly drawn) [Example 1.020], for which the IC50 lay in the range of 0.75 to 2 µM.

For the molecule `CCOc1cc(NC(=O)[C@@H](O)C(C)C)ccc1S(=O)(=O)Nc1ccc(OC)c(C(F)(F)F)c1` [Example 1.021], the IC50 was at most 0.2 µM.

For `CCOc1cc(NC(=O)[C@@H](CO)C(C)C)ccc1S(=O)(=O)Nc1cccc(OC(F)(F)F)c1` [Example 1.022], the IC50 is at most 0.2 µM.

For the molecule `CCOc1cc(NC(=O)C(=O)c2ccccc2)ccc1S(=O)(=O)Nc1cccc(OC(F)(F)F)c1` [Example 1.023], the IC50 was in the range of 0.2 to 0.75 µM.

As for `N#Cc1cc(NC(=O)[C@@H](CO)c2ccccc2)ccc1S(=O)(=O)Nc1cccc(OC(F)(F)F)c1` [Example 1.024], the IC50 was at most 0.2 µM.

As for `CCOc1cc(NC(=O)[C@@H](CO)C2CC2)ccc1S(=O)(=O)Nc1cccc(C(C)C)c1` [Example 1.025], the IC50 was at most 0.2 µM.

Turning to `CCc1cc(C(=O)Nc2ccc(S(=O)(=O)Nc3cccc(C(F)(F)F)c3)c(OC)c2)n(C)n1` [Example 1.027], the IC50 was 0.75 to 2 µM.

Regarding `CCOc1cc(NC(=O)[C@H]2CC[C@H](OC)CC2)ccc1S(=O)(=O)Nc1cccc(OC(F)(F)F)c1` [Example 1.028], the IC50 was in the range of 0.75 to 2 µM.

`CCOc1cc(NC(=O)C2CC=CC[C@H]2O)ccc1S(=O)(=O)Nc1ccc(C)c(OC(F)(F)F)c1` (stereo partly drawn) [Example 1.029]: the IC50 is at most 0.2 µM.

With `CCOc1cc(NC(=O)C2CCCNC2)ccc1S(=O)(=O)Nc1cccc(OC(F)(F)F)c1` (stereo not drawn) [Example 1.030], the IC50 was in the range of 2 to 20 µM.

Regarding `CCOc1cc(NC(=O)C(O)C2C=CCC2)ccc1S(=O)(=O)Nc1cccc(OC(F)(F)F)c1` (stereo not drawn) [Example 1.031], the concentration for half-maximal inhibition (IC50) was at most 0.2 µM.

Take `CCOc1cc(NC(=O)[C@@H](N)C(C)O)ccc1S(=O)(=O)Nc1cccc(OC(F)(F)F)c1` (stereo partly drawn) [Example 1.032]: the IC50 is at most 0.2 µM.

Take `COc1cc(NC(=O)[C@@H]2C=CCN2C(=O)OC(C)(C)C)ccc1S(=O)(=O)Nc1cccc(C(F)(F)F)c1` [Example 1.033]: the IC50 fell in the range of 2 to 20 µM.

Regarding `CCCOc1cc(NC(=O)[C@@H](O)C(C)C)ccc1S(=O)(=O)Nc1cccc(OC(F)(F)F)c1` [Example 1.034], the 50% inhibitory concentration (IC50) was at most 0.2 µM.

As for `COc1cc(NC(=O)C2CC3CCC32O)ccc1S(=O)(=O)Nc1cccc(C(F)(F)F)c1` (stereo not drawn) [Example 1.035], the IC50 was in the range of 0.2 to 0.75 µM.

Turning to `Cc1cc(NC(=O)c2ccnn2C)ccc1S(=O)(=O)Nc1cccc(C(F)(F)F)c1` [Example 1.036], the IC50 is at most 0.2 µM.

Turning to `CCOc1cc(NC(=O)c2cccc(=O)n2C)ccc1S(=O)(=O)Nc1cccc(OC(F)(F)F)c1` [Example 1.037], the IC50 fell in the range of 0.2 to 0.75 µM.

Turning to `COc1cc(NC(=O)c2ccn(C)c(=O)c2)ccc1S(=O)(=O)Nc1cccc(OC(F)(F)F)c1` [Example 1.038], the half-maximal inhibitory concentration (IC50) lay in the range of 0.2 to 0.75 µM.

Regarding `CCOc1cc(NC(=O)C(CC)C(O)C2CCOCC2)ccc1S(=O)(=O)Nc1cccc(OC(F)(F)F)c1` (stereo not drawn) [Example 1.039], the IC50 is at most 0.2 µM.

Take `COc1cc(NC(=O)c2ccccc2)ccc1S(=O)(=O)Nc1cccc(C(F)(F)F)c1` [Example 1.040]: the IC50 lay within 0.2 to 0.75 µM.

As to `COc1cc(NC(=O)c2ccnn2C)ccc1S(=O)(=O)Nc1cccc(OC(F)F)c1` [Example 1.041], the IC50 was 0.2 to 0.75 µM.

As to `COc1cc(NC(=O)C2CCOC2)ccc1S(=O)(=O)Nc1cccc(OC(F)(F)F)c1` (stereo not drawn) [Example 1.042], the IC50 lay in the range of 0.75 to 2 µM.

For the molecule `CCOc1cc(NC(=O)[C@H]2CC[C@@](C)(O)CC2)ccc1S(=O)(=O)Nc1cccc(OC(F)(F)F)c1` [Example 1.043], the IC50 lay in the range of 2 to 20 µM.

For `CCOc1cc(NC(=O)[C@@H](CO)C(C)C)ccc1S(=O)(=O)Nc1ccc(Cl)cc1` [Example 1.044], the IC50 was in the range of 0.2 to 0.75 µM.

Take `CCOc1cc(NC(=O)[C@@H](CO)c2ccccc2)ccc1S(=O)(=O)Nc1cccc(OC)c1C` [Example 1.045]: the IC50 lay in the range of 2 to 20 µM.

For the molecule `CCOc1cc(NC(=O)C2CC3C=CC2O3)ccc1S(=O)(=O)Nc1cccc(OC(F)(F)F)c1` (stereo not drawn) [Example 1.046], the IC50 is 0.2 to 0.75 µM.

In the case of `CCOc1cc(NC(=O)C(CCO)c2ccccc2)ccc1S(=O)(=O)Nc1cccc(OC(F)(F)F)c1` (stereo not drawn) [Example 1.047], the half-inhibitory concentration (IC50) was at most 0.2 µM.

In the case of `Cc1cc(NC(=O)c2cncn2C)ccc1S(=O)(=O)Nc1cccc(C(F)(F)F)c1` [Example 1.048], the IC50 fell in the range of 2 to 20 µM.

As for `COc1cc(NC(=O)[C@@H]2CCCC[C@H]2O)ccc1S(=O)(=O)Nc1cccc(OC(F)(F)F)c1` [Example 1.049], the IC50 was in the range of 0.75 to 2 µM.

Consider `CCOc1cc(NC(=O)[C@@H](CO)C(C)C)ccc1S(=O)(=O)Nc1ccc2c(c1)OC(F)(F)O2` [Example 1.050], for which the concentration for half-maximal inhibition (IC50) lay in the range of 0.2 to 0.75 µM.

With `COc1cc(NC(=O)[C@H]2CC[C@H](OC)CC2)ccc1S(=O)(=O)Nc1cccc(C(F)(F)F)c1` [Example 1.051], the 50% inhibitory concentration (IC50) was in the range of 2 to 20 µM.

For the molecule `CCOc1cc(NC(=O)CC(C)(O)CC)ccc1S(=O)(=O)Nc1cccc(OC(F)(F)F)c1` (stereo not drawn) [Example 1.052], the concentration for half-maximal inhibition (IC50) fell in the range of 0.2 to 0.75 µM.

As for `CCOc1cc(NC(=O)[C@@H](CO)C2CC2)ccc1S(=O)(=O)Nc1cccc(OC(F)(F)F)c1` [Example 1.053], the IC50 was at most 0.2 µM.

For `CCOc1cc(NC(=O)[C@@H](CO)C(C)C)ccc1S(=O)(=O)Nc1cccc(Cl)c1Cl` [Example 1.054], the IC50 was in the range of 0.2 to 0.75 µM.

In the case of `COc1cc(NC(=O)c2ccn[nH]2)ccc1S(=O)(=O)Nc1cccc(C(F)(F)F)c1` [Example 1.055], the IC50 was in the range of 0.75 to 2 µM.

Regarding `CCc1cc(NC(=O)C2CCOCC2)ccc1S(=O)(=O)Nc1cccc(OC(F)(F)F)c1` [Example 1.056], the 50% inhibitory concentration (IC50) is at most 0.2 µM.

With `CCOc1cc(NC(=O)[C@@H](CO)C(C)C)ccc1S(=O)(=O)Nc1ccc(C)c(C(C)C)c1` [Example 1.057], the half-maximal inhibitory concentration (IC50) was at most 0.2 µM.

For `CCOc1cc(NC(=O)C2CCOC2)ccc1S(=O)(=O)Nc1cccc(OC(F)(F)F)c1` (stereo not drawn) [Example 1.058], the IC50 was 0.2 to 0.75 µM.

On to `CCc1cc(NC(=O)[C@@H](O)C(C)C)ccc1S(=O)(=O)Nc1cccc(OC(F)(F)F)c1` [Example 1.059], for which the IC50 is at most 0.2 µM.

`CCOc1cc(NC(=O)CC(O)c2ccnn2C)ccc1S(=O)(=O)Nc1cccc(OC(F)(F)F)c1` (stereo not drawn) [Example 1.060]: the IC50 was in the range of 0.75 to 2 µM.

On to `CCOc1cc(NC(=O)C2CC3CCC2O3)ccc1S(=O)(=O)Nc1cccc(OC(F)(F)F)c1` (stereo not drawn) [Example 1.061], for which the IC50 is at most 0.2 µM.

With `CCOc1cc(NC(=O)[C@@H](CO)C(C)C)ccc1S(=O)(=O)Nc1cccc(C(F)(F)F)c1` [Example 1.062], the IC50 is at most 0.2 µM.

`CCOc1cc(NC(=O)C(C)c2ccccc2)ccc1S(=O)(=O)Nc1cccc(OC(F)(F)F)c1` (stereo not drawn) [Example 1.064]: the IC50 was at most 0.2 µM.

For `CCOc1cc(NC(=O)[C@@H](CO)C(C)C)ccc1S(=O)(=O)Nc1cccc(OC(F)F)c1` [Example 1.066], the IC50 was at most 0.2 µM.

In the case of `Cc1cc(NC(=O)c2ccno2)ccc1S(=O)(=O)Nc1cccc(C(F)(F)F)c1` [Example 1.067], the IC50 was in the range of 0.2 to 0.75 µM.

For the molecule `CCOc1cc(NC(=O)c2ccnn2C)ccc1S(=O)(=O)Nc1cccc(C(F)(F)F)c1` [Example 1.068], the IC50 is at most 0.2 µM.

As for `COc1cc(NC(=O)CC2CCCC2)ccc1S(=O)(=O)Nc1cccc(C(F)(F)F)c1` [Example 1.069], the IC50 fell in the range of 0.2 to 0.75 µM.

For the molecule `Cc1cc(NC(=O)c2ccccc2F)ccc1S(=O)(=O)Nc1cccc(C(F)(F)F)c1` [Example 1.070], the IC50 is 2 to 20 µM.

As for `CCCc1cc(NC(=O)[C@@H](O)C(C)C)ccc1S(=O)(=O)Nc1cccc(OC(F)(F)F)c1` [Example 1.071], the IC50 is at most 0.2 µM.

`CCOc1cc(NC(=O)C(C)C(O)C2CCOCC2)ccc1S(=O)(=O)Nc1cccc(OC(F)(F)F)c1` (stereo not drawn) [Example 1.072]: the concentration for half-maximal inhibition (IC50) is 0.2 to 0.75 µM.

On to `CCOc1cc(NC(=O)c2ccccc2)ccc1S(=O)(=O)Nc1cccc(OC(F)(F)F)c1` [Example 1.073], for which the concentration for half-maximal inhibition (IC50) was at most 0.2 µM.
